Laboratory results published in patent US20260167641A1, “CRYSTAL FORM OF IMIDAZOPYRAZINE DERIVATIVE, PREPARATION METHOD THEREFOR AND USE THEREOF” (TRANSTHERA SCIENCES (NANJING), INC., priority 2022, published 2026).
In brackets after ≈: the same amount, converted by molar mass.

How the values were obtained:
[1] = Stability evaluation under influencing factors; assay type: physicochemical; conditions: for Purity decrease: 30 days vs day 0
Experimental: Appropriate amounts of crystal forms I, II. III, and the compound of formula (I) were taken and exposed to conditions of 60° C., RH (relative humidity) 92.5%, RH (relative humidity) 75%, and light, respectively. The samples were collected on day 30, and the purity of the samples and changes in XRPD were examined according to the 2020 edition of the Chinese Pharmacopoeia.

[2] = Solubility test in pH 4.5 acetate buffer solution; assay type: physicochemical; conditions: for Solubility: saturated solution, 37° C., 200 rpm, 24 h
Experimental: Appropriate amounts of crystal forms I, II, III, and the compound of formula (I) were weighed and placed into 15 mL centrifuge tubes separately. A pH 4.5 acetate buffer was added to each tube to prepare saturated solutions. The tubes were sealed and placed in a water bath thermostatic oscillator to shake at 37° C. and a rotation speed of 200 rpm for 24 h. After centrifugation, the supernatants were collected and diluted to the corresponding multiples. The concentrations were measured. The detection was conducted according to the 2020 edition of the Chinese Pharmacopoeia.

[3] = Pharmacokinetic evaluation test in rats; assay type: in vivo, SD rats; conditions: p.o. 100 mg/kg; for Pharmacokinetic properties: SD rats; for AUCinf—obs / AUClast / Cmax / tz1/2 (terminal half-life) / Tmax: male SD rats, 100 mg/kg; for AUCinf—obs / AUClast / Cmax / tz1/2 (terminal half-life): mean, n = 3; for Tmax: n = 3, Tmax in median
Experimental: • Animals: male SD rats • Animal administration and sample collection: Crystal forms I, II, and III were each dissolved in a mixture of 20% PEG400+80% (20% Captisol in 0.5% MC) to prepare administration formulation suspensions. The administration formulations were intragastrically administered to the SD rats at a dose of 100 mg/kg. Blood samples were collected at time points of 15 min, 30 min, 1 h, 2 h, 4 h, 6 h, 8 h, 24 h, 48 h, 72 h, and […] after administration.
One day before administration, the animals underwent jugular vein catheterization. After administration, about 300 μL of blood samples were collected via the jugular vein and then placed into anticoagulation tubes containing EDTA-K2. The blood samples were centrifuged at 4° C. and 8000 rpm for 10 min to yield plasma samples, which were prepared within 30 min after blood sample collection. The plasma samples were stored in a refrigerator at −80° C. before tests.
The samples to be tested were taken out from the refrigerator at −80° C., naturally thawed at room temperature, and then vortexed for 5 min. 20 μL of each of the 20-fold diluted plasma samples was precisely pipetted into a 1.5 mL centrifuge tube, and 300 μL of an internal standard working solution at a concentration of 10 ng/mL was added. The mixture was uniformly mixed, vortexed for 5 min, and then centrifuged at 12000 rpm for 5 mun.
50 μL of the supernatant was precisely pipetted into a 96-well plate to which water was added at 150 μL/well in advance, uniformly mixed by vortexing for 5 min, and analyzed by LC-MS/MS.
The sample to be tested was taken out from the refrigerator at −80° C., naturally thawed at room temperature, and then vortexed for 5 min. 2 μL of the plasma sample was precisely pipetted and then added, together with 28 μL of blank plasma, to a 1.5 mL centrifuge tube, and 450 μL of an internal standard working solution (a solution of tolbutamide in acetonitrile) at a concentration of 100 ng/mL was added. The mixture was uniformly mixed, vortexed for 5 min, and then centrifuged at 12000 rpm for 5 min. 50 μL of the supernatant was precisely pipetted into a 96-well plate to which water was added at 150 μL/well in advance, uniformly mixed by vortexing for 5 min, and analyzed by LC-MS/MS.
The test compound concentrations were output by Analyst 1.7.1 of AB Sciex. Parameters such as mean, standard deviation, and coefficient of variation were calculated by Microsoft Excel. PK parameters were calculated by Pharsight Phoenix 8.2 software NCA (Tmax was in median).

| SMILES | Purity % ([1]; 0 day) | Crystal form identification (XRPD) ([1]; 60° C., 30 days) | Purity % ([1]; 60° C., 30 days) | Crystal form identification (XRPD) ([1]; Light exposure, 30 days) | Purity % ([1]; Light exposure, 30 days) | Crystal form identification (XRPD) ([1]; RH 75%, 30 days) | Purity % ([1]; RH 75%, 30 days) | Crystal form identification (XRPD) ([1]; RH 92.5%, 30 days) | Purity % ([1]; RH 92.5%, 30 days) | Purity decrease ([1]; light exposure) | Solubility compared to the amorphous form [2] | Solubility [2] | Pharmacokinetic properties [3] | AUCinf—obs [3] | AUClast [3] | Cmax [3] | tz1/2 (terminal half-life) [3] | Tmax [3] | further results |
| --- | --- | --- | --- | --- | --- | --- | --- | --- | --- | --- | --- | --- | --- | --- | --- | --- | --- | --- | --- |
| Nc1nccn2c(C34CCC(NC(=O)CN5CCOCC5)(CC3)C4)nc(-c3ccc(C(=O)Nc4cc(C(F)(F)F)ccn4)cc3)c12 (single isomer, unassigned) [Crystal form I, 4-(8-amino-3-(4-(2-morpholinoacetamido)bicyclo[2.2.1]heptan-1-yl)imidazo[1,5-a]pyrazin-1-yl)-N-(4-(trifluoromethyl)pyridin-2-yl)benzamide] | 98.6% | Consistent with day 0 | 98.7% | Consistent with day 0 | 98.1% | Consistent with day 0 | 98.7% | Consistent with day 0 | 98.7% | 0.5% | higher solubility | 273 µg/mL (≈ 430 µM) | very good pharmacokinetic properties | 1218.508 µg·h/mL | 1208.628 µg·h/mL | 96.267 µg/mL | 10.4 h | 1.00 h | Change of crystal form (XRPD pattern) ([1]; all influencing factor conditions, 30 days): no changes in the crystal forms occurred; Stability compared to the amorphous form ([1]; influencing factors, 30 days): higher stability |
| Nc1nccn2c(C34CCC(NC(=O)CN5CCOCC5)(CC3)C4)nc(-c3ccc(C(=O)Nc4cc(C(F)(F)F)ccn4)cc3)c12 (single isomer, unassigned) [Crystal form III, 4-(8-amino-3-(4-(2-morpholinoacetamido)bicyclo[2.2.1]heptan-1-yl)imidazo[1,5-a]pyrazin-1-yl)-N-(4-(trifluoromethyl)pyridin-2-yl)benzamide] | 99.0% | Consistent with day 0 | 94.8% | Consistent with day 0 | 88.0% | Partially converted to amorphous | 98.7% | Partially converted to amorphous | 98.7% | 11% | higher solubility | 98 µg/mL (≈ 154 µM) | very good pharmacokinetic properties | 2488.128 µg·h/mL | 2482.493 µg·h/mL | 142.333 µg/mL | 9.39 h | 2.00 h | Purity decrease ([1]; high temperature of 60° C.): 4.2% |
| Nc1nccn2c(C34CCC(NC(=O)CN5CCOCC5)(CC3)C4)nc(-c3ccc(C(=O)Nc4cc(C(F)(F)F)ccn4)cc3)c12 [Compound of formula (I), 4-(8-amino-3-(4-(2-morpholinoacetamido)bicyclo[2.2.1]heptan-1-yl)imidazo[1,5-a]pyrazin-1-yl)-N-(4-(trifluoromethyl)pyridin-2-yl)benzamide] | 99.7% | Consistent with day 0 | 99.5% | Consistent with day 0 | 88.2% | Consistent with day 0 | 99.7% | Consistent with day 0 | 99.7% | 11.5% |  | 65 µg/mL |  |  |  |  |  |  |  |
